# Measured values from US11324768B2, “Applications of triacetyl-3-hydroxyl phenyl adenosine in treating vascular inflammations or improving vascular endothelium functions” (priority 2016, dated 2022).
# Tests used:
# Type in all cases: in vivo
# Ob/Ob obese mice = experiment: Biochemical indexes in Ob/Ob obese mice; settings: 400 mg/kg
# Procedure: After 1 week of adaptive feeding, animals were randomly divided into two groups according to body weight: model control group, and IMM-H007 group (400 mg/kg), 10 in each group, and were given normal feed and simultaneously administered intragastrically at a dose of 0.1 ml/10 g body weight, and were continuously administered and fed for 9 weeks. The changes of food intake and body weight were recorded, and routine biochemical indicators such as blood lipids and blood glucose, etc. were measured. After 9 weeks, 3 animals were taken from each group and the mesenteric arterioles were taken for measurement of vascular endothelial function in the same manner as in Example 2.
# Detection Indicators (1) Routine Biochemical Indicators and (2) Vascular Endothelial Function
# [1] = test system: third-order mesenteric artery; experiment: Mesenteric microvascular endothelial function in ApoE−/− mice (pressure myography, Ach / SNP relaxation)
# Procedure: (§1) After 1 week of adaptive feeding, the animals were randomly divided into 7 groups according to body weight: normal control group, model control group A769662 (30 mg/kg) administration group, metformin (260 mg/kg) administration group, IMM-H007 low, medium, and high administration groups (50, 100, 200 mg/kg), 8 in each group, and were given a high-fat diet (78.6% basal diet, 10% lard, 1.0% cholesterol, 10% egg yolk powder, and 0.4% bile salt), and simultaneously administered intragastrically at a dose of 0.1 ml/10 g body weight, and were continuously administered and fed for 8 weeks to establish an atherosclerosis model.
# PSS and KPSS solutions were configured according to the instructions and used at the same time of the day. The PSS solution was taken out before the start of the experiment and pre-oxygenated for about 20 min. The ApoE−/− mice, which were fed with high-fat and simultaneously administered for 10 weeks, were anesthetized with pentobarbital sodium. The mice were supine and fixed. The abdominal cavity was opened along the median line. The mesenteric vascular bed was isolated and placed in the pre-oxygenated 20-minute PSS buffer. Under a stereomicroscope, a third-order mesenteric artery with a length of about 3 mm was carefully isolated. Firstly, the blood vessel was fixed to a P1 glass cannula and the coil was tightened. Note: the proximal end should be connected to the P1 end, and the P2 end vessel should be fixed and the coil should be tightened. The Chamber was placed on a objective table of the microscope and the data connection between Chamber and Interface was checked. The bath cover was covered and the oxygen was introduced, to exhaust air in the pipeline. The blood vessel image was found under the microscope and then the microscope was turned to camera mode. (The knob on the side of the eyepiece was rotated to graph.) MyoVIEW software was opened. The Camera window Capture was clicked to display the blood vessel image. The equilibration of blood vessels slowly rose from 10 mmHg to 60 mmHg, and each step was 300 s. After the equilibration procedure was completed, the solution in the bath was drained. Blood vessels were stimulated (10 ml) for 2 min using a 37° C. pre-heated KPSS solution, and changes in vasoconstriction were observed, and the blood vessels were then eluted using the PSS solution to baseline. The blood vessels were equilibrated at 60 mmHg 37° C. for 45 minutes, during which time the fluid was replaced every 20 minutes. The experiment was started: observing the vasodilatory response induced by 10^−10 to 10^−5 M Ach after pre-contraction with 2 μM phenylephrine, to evaluate the effect of the drugs on the vascular endothelial function. At the end of the experiment, the fresh 37° C. pre-heated PSS buffer was replaced for equilibration for 30 min, and the 10^−10M to 10^−3 M sodium nitroprusside were given to induce vasodilatory response after pre-contraction with 2 μM phenylephrine, to evaluate the effect of the drugs on vascular smooth muscle function. LD1 was the diameter of blood vessel after relaxation by administration of different concentrations of ACh or sodium nitroprusside, LD2 was the diameter of blood vessels after pre-contraction with phenylephrine, and LD3 represented the maximum diastolic diameter of blood vessel without any stimulant.
# The relaxation response to Ach and sodium nitroprusside after pre-contraction with phenylephrine was expressed as the percentage increase in the vascular diameter: % Relaxation=(LD1−LD2)/(LD3−LD2)×100.
# TNF-α = experiment: Serum inflammatory factor TNF-α in ApoE−/− mice (ELISA); set-up: unit not given here
# Procedure: as §1, with “and simultaneously administered intragastrically at a dose of 0.1 ml/10 g” left out
# (2) Effect of IMM-H007 on Serum Inflammatory Factors TNF-α and VCAM-1 in ApoE−/− Mice
# Operated according to kit instructions
compound,measurement,setting,value
"CC(=O)OCC1OC(n2cnc3c(Nc4cccc(O)c4)ncnc32)C(OC(C)=O)C1OC(C)=O (stereo not shown) [IMM-H007, 2′,3,′ 5′-triacetyl-N^6(3-hydroxyphenyl)adenosine]",Fasting blood glucose,Ob/Ob obese mice; 4 week,6.69 ± 0.12 mmol/L
same,Fasting insulin,Ob/Ob obese mice; 4 week,1.60 ± 0.18 ng/mL
same,Free fatty acid,Ob/Ob obese mice; 4 week,1.06 ± 0.03 mEq/l
same,Ingestion,Ob/Ob obese mice; 4 week,5.48 ± 0.05 g/day
same,Low-density lipoprotein,Ob/Ob obese mice; 4 week,1.16 ± 0.04 mmol/L
same,Total cholesterol,Ob/Ob obese mice; 4 week,3.57 ± 0.07 mmol/L
same,Triglyceride,Ob/Ob obese mice; 4 week,0.69 ± 0.03 mmol/L
same,Body weight,Ob/Ob obese mice; 9 week,51.18 ± 0.67 g
same,Fasting blood glucose,Ob/Ob obese mice; 9 week,9.98 ± 0.51 mmol/L
same,Fasting insulin,Ob/Ob obese mice; 9 week,6.07 ± 0.48 ng/mL
same,Free fatty acid,Ob/Ob obese mice; 9 week,0.44 ± 0.07 mEq/l
same,Ingestion,Ob/Ob obese mice; 9 week,5.47 ± 0.08 g/day
same,Low-density lipoprotein,Ob/Ob obese mice; 9 week,1.70 ± 0.28 mmol/L
same,Total cholesterol,Ob/Ob obese mice; 9 week,4.13 ± 0.67 mmol/L
same,Triglyceride,Ob/Ob obese mice; 9 week,0.52 ± 0.09 mmol/L
same,sodium nitroprusside endothelium-independent relaxation of microvascular,"[1]; 50 mg/kg, 1 × 10^−3 M SNP",96.5 ± 6.3%
same,sodium nitroprusside endothelium-independent relaxation of microvascular,"[1]; 50 mg/kg, 1 × 10^−4 M SNP",80.3 ± 12.1%
same,acetylcholine-induced endothelium-dependent relaxation of microvascular,"[1]; 50 mg/kg, 1 × 10^−5 M Ach",95.0 ± 4.4 %
same,sodium nitroprusside endothelium-independent relaxation of microvascular,"[1]; 50 mg/kg, 1 × 10^−5 M SNP",74.5 ± 12.8%
same,acetylcholine-induced endothelium-dependent relaxation of microvascular,"[1]; 50 mg/kg, 1 × 10^−6 M Ach",87.3 ± 5.0 %
same,sodium nitroprusside endothelium-independent relaxation of microvascular,"[1]; 50 mg/kg, 1 × 10^−6 M SNP",66.4 ± 11.6%
same,acetylcholine-induced endothelium-dependent relaxation of microvascular,"[1]; 50 mg/kg, 1 × 10^−7 M Ach",48.7 ± 12.8%
same,sodium nitroprusside endothelium-independent relaxation of microvascular,"[1]; 50 mg/kg, 1 × 10^−7 M SNP",60.9 ± 8.5%
same,acetylcholine-induced endothelium-dependent relaxation of microvascular,"[1]; 50 mg/kg, 1 × 10^−8 M Ach",29.3 ± 21.8%
same,sodium nitroprusside endothelium-independent relaxation of microvascular,"[1]; 50 mg/kg, 1 × 10^−8 M SNP",52.9 ± 14.2%
same,acetylcholine-induced endothelium-dependent relaxation of microvascular,"[1]; 50 mg/kg, 1 × 10^−9 M Ach",12.9 ± 12.6%
same,sodium nitroprusside endothelium-independent relaxation of microvascular,"[1]; 50 mg/kg, 1 × 10^−9 M SNP",43.9 ± 18.2%
same,acetylcholine-induced endothelium-dependent relaxation of microvascular,"[1]; 50 mg/kg, 1 × 10^−10 M Ach",5.0 ± 5.1%
same,sodium nitroprusside endothelium-independent relaxation of microvascular,"[1]; 50 mg/kg, 1 × 10^−10 M SNP",19.9 ± 10.1%
same,microvascular endothelial dysfunction caused by high fat,"[1]; 50 mg/kg, compared with the model control group",significantly improve
same,sodium nitroprusside endothelium-independent relaxation of microvascular,"[1]; 100 mg/kg, 1 × 10^−3 M SNP",96.5 ± 3.6%
same,sodium nitroprusside endothelium-independent relaxation of microvascular,"[1]; 100 mg/kg, 1 × 10^−4 M SNP",87.5 ± 10.9%
same,acetylcholine-induced endothelium-dependent relaxation of microvascular,"[1]; 100 mg/kg, 1 × 10^−5 M Ach",93.9 ± 12.9 %
same,sodium nitroprusside endothelium-independent relaxation of microvascular,"[1]; 100 mg/kg, 1 × 10^−5 M SNP",78.4 ± 13.0%
same,acetylcholine-induced endothelium-dependent relaxation of microvascular,"[1]; 100 mg/kg, 1 × 10^−6 M Ach",82.9 ± 8.5 %
same,sodium nitroprusside endothelium-independent relaxation of microvascular,"[1]; 100 mg/kg, 1 × 10^−6 M SNP",64.6 ± 12.2%
same,acetylcholine-induced endothelium-dependent relaxation of microvascular,"[1]; 100 mg/kg, 1 × 10^−7 M Ach",43.1 ± 21.8%
same,sodium nitroprusside endothelium-independent relaxation of microvascular,"[1]; 100 mg/kg, 1 × 10^−7 M SNP",51.5 ± 17.9%
same,acetylcholine-induced endothelium-dependent relaxation of microvascular,"[1]; 100 mg/kg, 1 × 10^−8 M Ach",18.6 ± 17.2%
same,sodium nitroprusside endothelium-independent relaxation of microvascular,"[1]; 100 mg/kg, 1 × 10^−8 M SNP",44.9 ± 21.9%
same,acetylcholine-induced endothelium-dependent relaxation of microvascular,"[1]; 100 mg/kg, 1 × 10^−9 M Ach",10.2 ± 12.0%
same,sodium nitroprusside endothelium-independent relaxation of microvascular,"[1]; 100 mg/kg, 1 × 10^−9 M SNP",33.9 ± 23.5%
same,acetylcholine-induced endothelium-dependent relaxation of microvascular,"[1]; 100 mg/kg, 1 × 10^−10 M Ach",2.37 ± 3.4%
same,sodium nitroprusside endothelium-independent relaxation of microvascular,"[1]; 100 mg/kg, 1 × 10^−10 M SNP",11.9 ± 13.5%
same,acetylcholine-induced endothelium-dependent relaxation response,"[1]; 100 mg/kg, compared with the model control group",significantly improve
same,sodium nitroprusside endothelium-independent relaxation of microvascular,"[1]; 200 mg/kg, 1 × 10^−3 M SNP",96.9 ± 2.9%
same,sodium nitroprusside endothelium-independent relaxation of microvascular,"[1]; 200 mg/kg, 1 × 10^−4 M SNP",91.3 ± 6.2%
same,acetylcholine-induced endothelium-dependent relaxation of microvascular,"[1]; 200 mg/kg, 1 × 10^−5 M Ach",96.9 ± 14.2 %
same,sodium nitroprusside endothelium-independent relaxation of microvascular,"[1]; 200 mg/kg, 1 × 10^−5 M SNP",75.3 ± 12.6%
same,acetylcholine-induced endothelium-dependent relaxation of microvascular,"[1]; 200 mg/kg, 1 × 10^−6 M Ach",73.3 ± 17.5 %
same,sodium nitroprusside endothelium-independent relaxation of microvascular,"[1]; 200 mg/kg, 1 × 10^−6 M SNP",58.0 ± 21.3%
same,acetylcholine-induced endothelium-dependent relaxation of microvascular,"[1]; 200 mg/kg, 1 × 10^−7 M Ach",42.2 ± 20.8%
same,sodium nitroprusside endothelium-independent relaxation of microvascular,"[1]; 200 mg/kg, 1 × 10^−7 M SNP",44.9 ± 27.8%
same,acetylcholine-induced endothelium-dependent relaxation of microvascular,"[1]; 200 mg/kg, 1 × 10^−8 M Ach",32.0 ± 20.1%
same,sodium nitroprusside endothelium-independent relaxation of microvascular,"[1]; 200 mg/kg, 1 × 10^−8 M SNP",39.4 ± 24.2%
same,acetylcholine-induced endothelium-dependent relaxation of microvascular,"[1]; 200 mg/kg, 1 × 10^−9 M Ach",18.8 ± 17.5%
same,sodium nitroprusside endothelium-independent relaxation of microvascular,"[1]; 200 mg/kg, 1 × 10^−9 M SNP",28.9 ± 29.5%
same,acetylcholine-induced endothelium-dependent relaxation of microvascular,"[1]; 200 mg/kg, 1 × 10^−10 M Ach",9.5 ± 12.0%
same,sodium nitroprusside endothelium-independent relaxation of microvascular,"[1]; 200 mg/kg, 1 × 10^−10 M SNP",19.4 ± 3.05%
same,serum TNF-α,TNF-α; 100 mg/kg,256.3 ± 46.4
same,serum TNF-α,TNF-α; 200 mg/kg,250.2 ± 27.8
